# Source: paper PMC6764291 (Frontiers in Oncology, 2019)
# Entries after “also recorded” stand apart in the source; their conditions may differ.
# Tests used:
# Type in all cases: cell-based, human
# [1] = test system: UM-SCC-74B; assay: Cell cycle analysis by flow cytometry, UM-SCC-74B; conditions: for G2/M-phase / S-phase: viable cells, DAPI
# Procedure: (§1) Cells were irradiated using ^137Cs gamma-ray photons at a dose-rate of ~1 Gy/min (Best Theratronics Gammacell® 40Exactor, Springfield, USA).
# Cells were collected and fixed in 70% ethanol at 6, 12, 24, 48, 72, and 96 h post-irradiation and stored at −20°C. For cell cycle analyses, 6, 12, 24, and 48 h samples were rehydrated and washed twice with PBS and stained with DAPI (Sigma Aldrich Sweden, Stockholm, Sweden) using 1 μg/ml for 30 min. 24, 48, 72, and 96 h samples were stained with caspase-3 and Noxa (ab13847 (1:500) and ab13654 (1:1,000), AbCam, Cambridge, UK) overnight at 4°C, followed by incubation with fluorescent labeled secondary antibodies for 90 min (ab 1:400) at room temperature. Analyses were performed using a BD LSR Fortessa flow cytometer (Becton Dickinson Biosciences, San Jose, USA). Data analyses for cleaved caspase-3 and Noxa were performed with BD FACSDiVa (Becton Dickinson Biosciences, San Jose, USA), while cell cycle analyses of exclusively viable cells were performed using FlowJo (Becton, Dickinson Biosciences, San Jose, USA). Coefficient of variation (CV) values, were below seven for all samples.
# [2] = test system: p53; assay: Western Blot p53 expression, UM-SCC-74B; conditions: n ≥ 3
# Procedure: as §1
# Whole-cell lysates were prepared according to standard protocols. Protein concentrations were measured using a DeNovix DS-11 spectrophotometer (DeNovix Inc., Wilmington, DE, USA). Samples were separated on 4–12% Bis-Tris SDS gels and transferred to a nitrocellulose membrane (ThermoFisher Scientific, Uppsala, Sweden) by wet-transfer blotting. The membrane was blocked for 1 h in PBS with 5% BSA before incubation with primary antibodies targeting p53, caspase-3, NaK-ATPase and GLB1 (DO-1 (ab1101), ab13847, ab76020 and ab128993, AbCam, Cambridge, UK) and β-actin (A5441, Sigma Aldrich Sweden, Stockholm, Sweden) at 4°C overnight. After washing with PBS with 1% Tween-20, the membrane was incubated with respective and species-specific Horse Radish Peroxidase-labeled secondary antibody (ThermoFisher Scientific, Waltham, MA, USA) and stained with electro-chemiluminescent solution (Immobilon, Millipore, Bedford, USA).
# [3] = test system: UM-SCC-74B spheroids; assay: 3D tumor spheroid growth, UM-SCC-74B; conditions: for Maximum time to termination / Median time to termination: volume >600 μm^3; for CDI: CDI = AB/(A*B)
# Procedure: as §1
# For liquid overlay 3D spheroid formation, 96-well plates were coated with 0.15% agarose dissolved in PBS with 1% penicillin/streptomycin. 1000 UM-SCC-74B cells/well were seeded and incubated at 37°C for 3 days prior to treatment. […] Half of the medium was replaced every 48 h for the first 10 days, thereafter every 4 days. […] Images were obtained every 2–4 days using a Canon EOS 700D camera mounted on an inverted Nikon Diaphot-TMD microscope. […] Each spheroid was normalized to its own starting volume at the start of treatment (Day 0, growth ratio = 1). Spheroids exceeding a volume of 600 μm^3 were excluded (i.e., terminated) from further analyses as 600 μm^3 is the maximum size possible to obtain in these settings with uncompromised growth conditions.
# GraphPad Prism version 6.07 (GraphPad Software, San Diego, USA) was used for data processing and analysis. p-values were determined using unpaired student's t-test for comparison between two groups or one-way ANOVA followed by Tukey's multiple comparisons test, with p < 0.05 (^*), p < 0.01 (^**), p < 0.001 (^***), and p < 0.0001 (^****). For XTT assays cell viability was normalized for irradiated and unirradiated samples separately. […] CDI ≤ 0.7 equaled significant synergistic effect, CDI ≤ 1 equaled additive effect and CDI > 1 equaled antagonistic effect ([29]).
# [4] = Combination 2 Gy + 20 μM PM2, 6 h
# [5] = Combination 2 Gy + 20 μM PM2, 12 h
# [6] = Combination 2 Gy + 20 μM PM2, 24 h
# [7] = Combination 2 Gy + 20 μM PM2, 48 h
smiles,measurement,setting,value
CC(=O)N[C@H](C(=O)N[C@@H](CO)C(=O)N[C@@H](Cc1ccccc1)C(=O)N[C@]1(C)CCCCCCC=CCCC[C@@](C)(C(N)=O)NC(=O)[C@H](CC(C)C)NC(=O)[C@H](CC(C)C)NC(=O)[C@H](C)NC(=O)[C@H](Cc2c[nH]c3ccccc23)NC(=O)[C@H](Cc2ccc(O)cc2)NC(=O)[C@H](CCC(=O)O)NC1=O)[C@@H](C)O [PM2],G2/M-phase,"[1]; 20 μM PM2 alone, 6 h",19.7%
same,S-phase,"[1]; 20 μM PM2 alone, 6 h",41.6%
same,G2/M-phase,"[1]; 20 μM PM2 alone, 24 h",16.7%
same,S-phase,"[1]; 20 μM PM2 alone, 24 h",12.9%
same,G2/M-phase,"[1]; 20 μM PM2 alone, 48 h",10.8%
same,S-phase,"[1]; 20 μM PM2 alone, 48 h",17.4%
same,S-phase reduction / depletion,[1]; 2 Gy + 20 μM PM2,S-phase reduction occurred as early as 12 h post-treatment; also recorded: S-phase depletion at 24 h post-treatment
same,G2/M-phase,[1]; [4],37.9%
same,S-phase,[1]; [4],42.9%
same,G2/M-phase,[1]; [5],39.4%
same,S-phase,[1]; [5],7.31%
same,G2/M-phase,[1]; [6],23.8%
same,S-phase,[1]; [6],2.89%
same,G2/M-phase,[1]; [7],20.6%
same,S-phase,[1]; [7],5.37%
same,p53 expression,"[2]; 20 μM PM2, 24 h",increased expression of p53
same,"p53 expression, combination versus PM2 alone","[2]; 2 Gy + 20 μM PM2, 24 h",significant increase; also recorded: further increased wt p53 levels
same,increase in wt p53 levels following combination therapy,"[2]; 2 Gy + 20 μM PM2, 24 h, normalized to controls",~5 fold
same,Maximum time to termination,[3]; 2 × 2 Gy and 3 × PM2,25 days
same,Median time to termination,[3]; 2 × 2 Gy and 3 × PM2,21 days
same,spheroid response,"[3]; 2 × 2 Gy/3 × 20 μM PM2, day 14",continuous growth inhibition throughout day 14
same,spheroid size of untreated controls,"[3]; 3 × 2 Gy + single dose of PM2, day 14",75%
same,increase of median time to termination compared to untreated controls,[3]; 3 × 2 Gy and 3 × PM2,2 fold
same,Maximum time to termination,[3]; 3 × 2 Gy and 3 × PM2,35 days
same,Median time to termination,[3]; 3 × 2 Gy and 3 × PM2,28 days
same,spheroid response,"[3]; 3 × 2 Gy/3 × 20 μM PM2, day 14",continuous growth inhibition throughout day 14
same,spheroid size of treated spheroids as % of untreated controls,"[3]; 5 × 20 μM PM2 at 48 h intervals, day 14, no radiation",57%
same,spheroid size of untreated controls,"[3]; 5 × 2 Gy + single dose of PM2, day 14",55%
same,Maximum time to termination,[3]; 5 × 2 Gy and 1 × PM2,25 days
same,Median time to termination,[3]; 5 × 2 Gy and 1 × PM2,21 days
same,Maximum time to termination,[3]; 5 × 2 Gy and 5 × PM2,Not reached
same,Median time to termination,[3]; 5 × 2 Gy and 5 × PM2,Not reached
same,spheroid response,[3]; 5 × 2 Gy/5 × 20 μM PM2,spheroid disintegration and cell death
same,Maximum time to termination,"[3]; 5 × PM2, no radiation",21 days
same,Median time to termination,"[3]; 5 × PM2, no radiation",21 days
same,CDI,"[3]; Day 10, 1 × 20 μM PM2 + 1 × 2 Gy",0.705
same,CDI,"[3]; Day 10, 1 × 20 μM PM2 + 2 × 2 Gy",0.507
same,CDI,"[3]; Day 10, 1 × 20 μM PM2 + 3 × 2 Gy",0.493
same,CDI,"[3]; Day 10, 1 × 20 μM PM2 + 5 × 2 Gy",0.472
same,CDI,"[3]; Day 10, 2 × 20 μM PM2 + 2 × 2 Gy",0.209
same,CDI,"[3]; Day 10, 3 × 20 μM PM2 + 1 × 2 Gy",0.412
same,CDI,"[3]; Day 10, 3 × 20 μM PM2 + 2 × 2 Gy",0.122
same,CDI,"[3]; Day 10, 3 × 20 μM PM2 + 3 × 2 Gy",0.244
same,CDI,"[3]; Day 10, 5 × 20 μM PM2 + 1 × 2 Gy",0.398
same,CDI,"[3]; Day 10, 5 × 20 μM PM2 + 5 × 2 Gy",0.201
same,CDI,"[3]; Day 14, 1 × 20 μM PM2 + 1 × 2 Gy",1.03
same,CDI,"[3]; Day 14, 1 × 20 μM PM2 + 2 × 2 Gy",0.93
same,CDI,"[3]; Day 14, 1 × 20 μM PM2 + 3 × 2 Gy",0.821
same,CDI,"[3]; Day 14, 1 × 20 μM PM2 + 5 × 2 Gy",0.815
same,CDI,"[3]; Day 14, 2 × 20 μM PM2 + 2 × 2 Gy",0.51
same,CDI,"[3]; Day 14, 3 × 20 μM PM2 + 1 × 2 Gy",0.944
same,CDI,"[3]; Day 14, 3 × 20 μM PM2 + 2 × 2 Gy",0.333
same,CDI,"[3]; Day 14, 3 × 20 μM PM2 + 3 × 2 Gy",0.182
same,CDI,"[3]; Day 14, 5 × 20 μM PM2 + 1 × 2 Gy",0.568
same,CDI,"[3]; Day 14, 5 × 20 μM PM2 + 5 × 2 Gy",0.023
same,effect on proliferation rate of spheroids,"[3]; all combination treatments of PM2 and EBRT, prior to day 14",synergistic inhibitory effects
same,spheroid response (abstract),[3]; combination of PM2 and EBRT,growth inhibition and complete spheroid disintegration
same,spheroid disintegration,[3]; five repeated doses of both PM2 (20 μM) and 2 Gy,100%
same,spheroid growth inhibition,"[3]; repeated PM2 doses at 48 h intervals, no radiation",did inhibit growth in a dose-dependent manner
same,spheroid growth inhibition,"[3]; single 20 μM PM2, 48 h incubation, no radiation",failed to impair UM-SCC-74B spheroid growth
same,spheroid growth inhibition,[3]; single dose of PM2 with EBRT,greater inhibitory effects than either treatment alone
same,spheroid growth inhibition,[3]; two repeated doses of each of PM2 and EBRT (data not shown),growth inhibition surpassing the standard 14-day assay
